# Measured values reported in ChEMBL document CHEMBL3638970, “Substituted benzamide derivatives” (2015).
# What was measured:
# [1] = biological target: Trace amine-associated receptor 1 (Rattus norvegicus, UniProt Q923Y9); assay: (§1) Radioligand Binding Assay: HEK-293 cells stably expressing rat TAAR1 were maintained at 37 C and 5% CO2 in DMEM high glucose medium, containing fetal calf serum (10%, heat inactivated for 30 min at 56 C), penicillin/streptomycin (1%), and 375 ug/ml geneticin (Gibco). Cells were released from culture flasks using trypsin/ EDTA, harvested, washed twice with ice-cold PBS (without Ca2+ and Mg2+), pelleted at 1,000 rpm for 5 min at 4 C, frozen and stored at -80 C. Frozen pellets were suspended in 20 ml HEPES-NaOH (20 mM, pH 7.4) containing 10 mM EDTA and homogenized with a Polytron (PT 6000, Kinematica) at 14,000 rpm for 20 s. The homogenate was centrifuged at 48,000 x g for 30 min at 4 C. Subsequently, the supernatant was removed and discarded, and the pellet resuspended in 20 ml HEPES-NaOH (20 mM, pH 7.4) containing 0.1 mM EDTA using the Polytron (20 s at 14,000 rpm). This procedure was repeated and the final pellet resuspended in HEPES-NaOH containing 0.1 mM EDTA.; type: cell-based, HEK293
# [2] = biological target: Trace amine-associated receptor 1 (Mus musculus, UniProt Q923Y8); assay: as §1, with “Assay: Membrane Preparation and Radioligand Binding.” for “Assay:”, “mouse TAA 1” for “rat TAAR1”, “C02” for “CO2”, “rpm).” for “rpm). This procedure was repeated and the final pellet resuspended in HEPES-NaOH containing 0.1 mM EDTA.”; type: cell membranes, HEK293
# Trace amine-associated receptor 1 (Mus musculus, UniProt Q923Y8), sequence (Q923Y8 whole entry): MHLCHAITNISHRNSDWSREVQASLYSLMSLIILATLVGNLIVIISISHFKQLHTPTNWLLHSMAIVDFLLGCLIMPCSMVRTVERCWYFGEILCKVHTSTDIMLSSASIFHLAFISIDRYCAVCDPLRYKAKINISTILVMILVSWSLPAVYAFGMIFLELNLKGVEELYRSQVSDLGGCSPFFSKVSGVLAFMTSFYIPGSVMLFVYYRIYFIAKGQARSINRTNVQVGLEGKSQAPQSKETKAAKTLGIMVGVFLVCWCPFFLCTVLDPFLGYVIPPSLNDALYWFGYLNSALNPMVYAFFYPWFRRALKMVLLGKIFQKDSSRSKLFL
# Trace amine-associated receptor 1 (Rattus norvegicus, UniProt Q923Y9), sequence (Q923Y9 whole entry): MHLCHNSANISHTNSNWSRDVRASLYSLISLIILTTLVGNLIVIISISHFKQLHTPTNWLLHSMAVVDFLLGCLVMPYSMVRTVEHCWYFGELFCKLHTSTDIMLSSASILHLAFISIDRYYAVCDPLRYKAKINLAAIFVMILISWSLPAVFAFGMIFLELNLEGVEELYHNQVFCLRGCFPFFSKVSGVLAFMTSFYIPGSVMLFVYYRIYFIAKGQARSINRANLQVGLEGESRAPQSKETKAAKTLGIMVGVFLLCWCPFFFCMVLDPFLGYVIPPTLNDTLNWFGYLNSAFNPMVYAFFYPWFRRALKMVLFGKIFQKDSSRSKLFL
SMILES,Ki [1],Ki [2]
N#Cc1cccc(CNC(=O)Nc2ccc([C@H]3CNCCO3)cc2F)c1,67.9 nM,3.1 nM
COc1ccc(C#N)cc1NC(=O)Nc1ccc([C@@H]2CNCCO2)cc1F,5.9 nM,4.4 nM
CCOc1ccc(C#N)cc1NC(=O)Nc1ccc([C@H]2CNCCO2)cc1F,1.9 nM,1.8 nM
CCOc1ccc(C#N)cc1NC(=O)Nc1ccc([C@@H]2CNCCO2)cc1F,3.9 nM,3.1 nM
N#Cc1ccnc(C(=O)Nc2ccc([C@@H]3CNCCO3)cc2F)c1,32.5 nM,5 nM
N#Cc1cccc(C(=O)Nc2ccc([C@H]3CNCCO3)cc2F)n1,959 nM,9.7 nM
O=C(Nc1ccc([C@H]2CNCCO2)c(F)c1)c1cnn(-c2ccc(OC(F)F)cc2)c1,0.7 nM,0.6 nM
N#Cc1cccc(C(=O)Nc2ccc([C@@H]3CNCCO3)cc2Cl)n1,184 nM,82.4 nM
N#Cc1cccc(C(=O)Nc2ccc([C@H]3CNCCO3)cc2Cl)n1,565 nM,27.6 nM
N#Cc1ccc(C(=O)Nc2ccc([C@H]3CNCCO3)cc2Cl)nc1,154 nM,6.3 nM
N#Cc1ccc(C(=O)Nc2ccc([C@@H]3CNCCO3)cc2Cl)nc1,20.2 nM,12 nM
N#Cc1ccc(C(=O)Nc2ccc([C@H]3CNCCO3)cc2Cl)cn1,524 nM,17 nM
N#Cc1ccc(C(=O)Nc2ccc([C@@H]3CNCCO3)cc2Cl)cn1,410 nM,25.9 nM
N#Cc1cc(Cl)cc(C(=O)Nc2ccc([C@H]3CNCCO3)cc2F)n1,93.8 nM,6.3 nM
O=C(Nc1ccc([C@H]2CNCCO2)c(F)c1)c1cnn(-c2ccnc(C(F)(F)F)n2)c1,3.6 nM,8 nM
O=C(Nc1ccc([C@H]2CNCCO2)c(F)c1)c1cnn(-c2cnc(C(F)(F)F)cn2)c1,4 nM,4.8 nM
